Seven compounds from US9636418B2 (priority 2013, dated 2017) can be followed below.

Each structure is given as a SMILES string. Several values for one entry are separate records, joined by “and”; a condition that tells them apart may be missing. Equal entries are not always repeated.

Common to all, as to experiment: cell-based
One assay deals with hNav1.3 (Homo sapiens, UniProt Q9NY46). The settings on record: IonWorks Quattro; read-out: IC50 Nav1.3.
A further assay addresses hNav1.5 (Homo sapiens, UniProt Q14524). The conditions noted are these: IonWorks Quattro; read-out: IC50 Nav1.5. Background: Patch clamp records ionic current or voltage across a cell membrane.
A further assay addresses hNav1.7 (Homo sapiens, UniProt Q15858). The settings on record: IonWorks Quattro; read-out: IC50 Nav1.7.
Another assay has as its target hNav1.4 (Homo sapiens, UniProt P35499). The settings on record: for IC50: IonWorks Quattro, read-out: IC50 Nav1.4; for Nav1.4/Nav1.7: ratio of IonWorks Quattro IC50 values.

Sequence of hNav1.4 (P35499 whole entry): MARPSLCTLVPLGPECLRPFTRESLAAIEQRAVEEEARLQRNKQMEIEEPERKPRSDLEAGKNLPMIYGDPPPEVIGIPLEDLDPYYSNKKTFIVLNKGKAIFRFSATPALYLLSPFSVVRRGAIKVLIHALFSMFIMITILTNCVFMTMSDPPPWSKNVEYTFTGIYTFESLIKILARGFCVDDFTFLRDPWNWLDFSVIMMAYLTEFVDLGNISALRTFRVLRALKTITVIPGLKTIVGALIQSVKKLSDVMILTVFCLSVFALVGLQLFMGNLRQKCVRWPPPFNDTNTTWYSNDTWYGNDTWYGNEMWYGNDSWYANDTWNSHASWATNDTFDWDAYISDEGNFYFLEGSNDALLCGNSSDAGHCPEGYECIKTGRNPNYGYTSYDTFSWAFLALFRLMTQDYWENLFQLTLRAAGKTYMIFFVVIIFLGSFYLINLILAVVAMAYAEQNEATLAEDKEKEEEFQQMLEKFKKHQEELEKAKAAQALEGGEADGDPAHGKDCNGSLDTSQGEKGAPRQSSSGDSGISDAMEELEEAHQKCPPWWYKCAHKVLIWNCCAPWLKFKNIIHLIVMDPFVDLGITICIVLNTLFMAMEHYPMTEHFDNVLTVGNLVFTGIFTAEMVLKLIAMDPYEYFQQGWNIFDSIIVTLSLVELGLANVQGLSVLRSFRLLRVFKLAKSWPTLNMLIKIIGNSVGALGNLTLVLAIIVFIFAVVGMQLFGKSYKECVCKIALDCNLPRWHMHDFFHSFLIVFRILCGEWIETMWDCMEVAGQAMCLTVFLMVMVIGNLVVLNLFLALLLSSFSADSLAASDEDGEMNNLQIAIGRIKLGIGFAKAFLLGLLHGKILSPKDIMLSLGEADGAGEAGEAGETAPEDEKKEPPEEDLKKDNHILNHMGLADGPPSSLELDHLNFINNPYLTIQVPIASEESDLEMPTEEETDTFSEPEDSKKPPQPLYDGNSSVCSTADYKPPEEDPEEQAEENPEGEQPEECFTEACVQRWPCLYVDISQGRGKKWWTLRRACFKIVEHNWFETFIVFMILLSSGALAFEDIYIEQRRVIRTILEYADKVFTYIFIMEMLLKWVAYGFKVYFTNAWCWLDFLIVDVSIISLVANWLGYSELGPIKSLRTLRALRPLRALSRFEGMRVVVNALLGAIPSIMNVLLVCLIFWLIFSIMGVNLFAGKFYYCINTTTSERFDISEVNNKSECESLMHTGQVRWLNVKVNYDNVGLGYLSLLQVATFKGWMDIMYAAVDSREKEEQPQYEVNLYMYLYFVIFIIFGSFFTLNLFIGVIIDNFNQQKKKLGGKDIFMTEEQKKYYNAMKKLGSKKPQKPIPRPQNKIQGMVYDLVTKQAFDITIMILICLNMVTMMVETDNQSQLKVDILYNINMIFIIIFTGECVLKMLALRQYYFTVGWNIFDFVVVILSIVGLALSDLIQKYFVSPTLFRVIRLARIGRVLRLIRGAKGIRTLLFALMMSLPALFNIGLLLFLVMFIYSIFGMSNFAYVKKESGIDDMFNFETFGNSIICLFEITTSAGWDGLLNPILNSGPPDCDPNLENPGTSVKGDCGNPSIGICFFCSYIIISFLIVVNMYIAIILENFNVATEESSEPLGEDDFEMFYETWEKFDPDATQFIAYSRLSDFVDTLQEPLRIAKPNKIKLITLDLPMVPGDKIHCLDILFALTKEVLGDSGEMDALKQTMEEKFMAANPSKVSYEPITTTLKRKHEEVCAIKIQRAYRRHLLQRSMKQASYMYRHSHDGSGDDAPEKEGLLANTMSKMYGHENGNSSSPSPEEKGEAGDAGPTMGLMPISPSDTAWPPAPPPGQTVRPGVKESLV
Sequence of hNav1.5 (Q14524 whole entry): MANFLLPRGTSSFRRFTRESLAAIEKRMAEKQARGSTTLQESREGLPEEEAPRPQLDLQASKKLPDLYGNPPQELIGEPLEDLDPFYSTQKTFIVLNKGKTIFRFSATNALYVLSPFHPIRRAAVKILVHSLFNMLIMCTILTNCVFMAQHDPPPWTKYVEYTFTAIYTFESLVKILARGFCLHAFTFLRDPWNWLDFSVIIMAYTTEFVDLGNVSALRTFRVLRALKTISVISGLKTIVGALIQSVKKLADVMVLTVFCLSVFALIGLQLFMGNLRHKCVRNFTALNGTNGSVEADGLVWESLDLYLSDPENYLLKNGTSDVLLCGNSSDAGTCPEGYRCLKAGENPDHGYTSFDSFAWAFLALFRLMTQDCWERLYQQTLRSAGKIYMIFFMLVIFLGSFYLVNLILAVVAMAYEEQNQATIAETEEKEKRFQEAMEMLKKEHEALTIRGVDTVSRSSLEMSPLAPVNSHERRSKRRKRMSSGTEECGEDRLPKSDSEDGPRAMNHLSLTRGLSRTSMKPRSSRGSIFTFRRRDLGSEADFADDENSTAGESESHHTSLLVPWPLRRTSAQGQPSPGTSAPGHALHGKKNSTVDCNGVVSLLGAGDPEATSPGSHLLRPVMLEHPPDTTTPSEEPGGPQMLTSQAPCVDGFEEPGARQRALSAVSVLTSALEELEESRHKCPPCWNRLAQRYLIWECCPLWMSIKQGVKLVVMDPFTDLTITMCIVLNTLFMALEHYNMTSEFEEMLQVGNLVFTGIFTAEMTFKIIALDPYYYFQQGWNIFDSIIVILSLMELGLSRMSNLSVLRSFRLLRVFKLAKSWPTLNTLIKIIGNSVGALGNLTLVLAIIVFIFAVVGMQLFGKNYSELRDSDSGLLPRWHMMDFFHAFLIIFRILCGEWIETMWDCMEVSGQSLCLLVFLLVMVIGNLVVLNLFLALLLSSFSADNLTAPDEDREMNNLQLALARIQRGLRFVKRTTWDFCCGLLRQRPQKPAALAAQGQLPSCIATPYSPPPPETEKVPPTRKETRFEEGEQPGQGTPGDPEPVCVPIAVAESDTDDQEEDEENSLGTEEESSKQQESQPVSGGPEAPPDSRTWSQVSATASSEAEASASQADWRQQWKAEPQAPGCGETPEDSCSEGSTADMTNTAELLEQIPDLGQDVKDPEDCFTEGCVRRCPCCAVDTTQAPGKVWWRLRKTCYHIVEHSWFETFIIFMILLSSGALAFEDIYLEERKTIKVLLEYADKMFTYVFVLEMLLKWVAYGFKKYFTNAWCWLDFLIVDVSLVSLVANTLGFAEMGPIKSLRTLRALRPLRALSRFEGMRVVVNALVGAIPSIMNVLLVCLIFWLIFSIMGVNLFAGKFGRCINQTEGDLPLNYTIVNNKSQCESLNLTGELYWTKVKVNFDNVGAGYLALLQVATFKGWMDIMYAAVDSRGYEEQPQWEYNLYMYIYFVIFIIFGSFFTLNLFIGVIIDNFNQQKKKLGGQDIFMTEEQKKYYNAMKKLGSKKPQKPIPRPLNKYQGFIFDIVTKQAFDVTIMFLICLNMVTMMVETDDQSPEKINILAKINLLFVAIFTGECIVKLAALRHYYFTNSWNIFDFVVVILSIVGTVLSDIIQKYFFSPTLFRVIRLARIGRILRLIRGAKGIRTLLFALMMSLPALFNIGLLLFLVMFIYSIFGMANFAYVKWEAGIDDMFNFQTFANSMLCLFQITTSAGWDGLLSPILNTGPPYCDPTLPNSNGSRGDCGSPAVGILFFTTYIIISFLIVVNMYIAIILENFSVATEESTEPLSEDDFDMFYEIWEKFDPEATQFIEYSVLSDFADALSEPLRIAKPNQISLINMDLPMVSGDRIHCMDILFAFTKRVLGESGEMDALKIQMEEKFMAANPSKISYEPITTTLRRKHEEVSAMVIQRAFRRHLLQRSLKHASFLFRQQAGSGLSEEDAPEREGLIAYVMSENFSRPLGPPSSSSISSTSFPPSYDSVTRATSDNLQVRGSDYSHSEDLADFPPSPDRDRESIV

As usually defined, the IC50 is the concentration that inhibits the measured activity by half. In the case of `CSCC[C@@H]1NC(=O)[C@H](Cc2c[nH]c3ccccc23)NC(=O)[C@H](CCCCN)NC(=O)[C@H](CCC(N)=O)NC(=O)[C@@H](NC(=O)[C@@H](N)Cc2ccc(O)cc2)CSSC[C@@H]2NC(=O)[C@@H]3CSSC[C@@H](C(=O)N[C@@H](CCCNC(=N)N)C(=O)N[C@@H](CCCCN)C(=O)N[C@@H](Cc4ccc(O)cc4)C(=O)N[C@@H](CC(N)=O)C(N)=O)NC(=O)[C@H](Cc4c[nH]c5ccccc45)NC(=O)[C@H](CC(C)C)NC(=O)[C@H](CCCCN)NC(=O)[C@H](CSSC[C@H](NC(=O)[C@H]([C@@H](C)O)NC(=O)[C@H](Cc4c[nH]c5ccccc45)NC1=O)C(=O)N[C@@H](CC(=O)O)C(=O)N[C@@H](CO)C(=O)N[C@@H](CCCCN)C(=O)N[C@@H](CCCNC(=N)N)C(=O)N[C@@H](C)C(=O)N3)NC(=O)[C@H](CCC(=O)O)NC(=O)[C@H](CC(C)C)NC(=O)CNC(=O)[C@H](CCC(=O)O)NC2=O` [compound 243], the IC50 on hNav1.3 is over 5 µM; at hNav1.5, over 5 µM; at hNav1.7, 0.52 µM; on hNav1.4, over 5 µM.

Consider `CC[C@H](C)[C@H](NC(=O)[C@@H](NC(=O)[C@H](CCCCN)NC(=O)[C@H](CCCNC(=N)N)NC(=O)[C@@H]1CSSC[C@@H]2NC(=O)[C@H](C)NC(=O)[C@H](CCCNC(=N)N)NC(=O)[C@H](CCCCN)NC(=O)[C@H](CO)NC(=O)[C@H](CC(=O)O)NC(=O)[C@@H]3CSSC[C@H](NC(=O)[C@H](CCCNC(N)=O)NC(=O)[C@H](CC(C)C)NC(=O)CNC(=O)[C@H](CCC(=O)O)NC(=O)[C@H](CSSC[C@H](NC(=O)[C@@H](N)Cc4ccc(O)cc4)C(=O)N[C@@H](CCC(N)=O)C(=O)N[C@@H](CCCCN)C(=O)N[C@@H](Cc4c[nH]c5ccccc45)C(=O)N[C@@H](CCSC)C(=O)N[C@@H](Cc4c[nH]c5ccccc45)C(=O)N[C@@H]([C@@H](C)O)C(=O)N3)NC2=O)C(=O)N[C@@H](CCCCN)C(=O)N[C@@H](CC(C)C)C(=O)N[C@@H](Cc2c[nH]c3ccccc23)C(=O)N1)[C@@H](C)CC)C(N)=O` [compound 122], for which the IC50 amounted to 0.35 µM at hNav1.3, 6.8 µM on hNav1.5, 0.04 µM on hNav1.7 and 0.5 µM on hNav1.4. At hNav1.4, the Nav1.4/Nav1.7 is reported as 15.

As to `CSCC[C@@H]1NC(=O)[C@H](Cc2c[nH]c3ccccc23)NC(=O)[C@H](CCCCN)NC(=O)[C@H](CCC(N)=O)NC(=O)[C@@H](NC(=O)[C@@H](N)Cc2ccc(O)cc2)CSSC[C@@H]2NC(=O)[C@@H]3CSSC[C@@H](C(=O)N[C@@H](CCCNC(=N)N)C(=O)N[C@@H](CCCCN)C(=O)N[C@@H](Cc4ccc(O)cc4)C(=O)N[C@@H](CCCCN)C(N)=O)NC(=O)[C@H](Cc4c[nH]c5ccccc45)NC(=O)[C@H](CC(C)C)NC(=O)[C@H](CCCCN)NC(=O)[C@H](CSSC[C@H](NC(=O)[C@H]([C@@H](C)O)NC(=O)[C@H](Cc4c[nH]c5ccccc45)NC1=O)C(=O)N[C@@H](CC(=O)O)C(=O)N[C@@H](CO)C(=O)N[C@@H](CCCCN)C(=O)N[C@@H](CCCNC(=N)N)C(=O)N[C@@H](C)C(=O)N3)NC(=O)[C@H](CCC(=O)O)NC(=O)[C@H](CC(C)C)NC(=O)CNC(=O)[C@H](CCC(=O)O)NC2=O` [compound 242], the IC50 on hNav1.3 is over 5 µM; on hNav1.5, over 5 µM; on hNav1.7, 0.45 µM and 0.63 µM; at hNav1.4 it was over 5 µM.

`CSCC[C@@H]1NC(=O)[C@H](Cc2c[nH]c3ccccc23)NC(=O)[C@H](CCCCN)NC(=O)[C@H](CCC(N)=O)NC(=O)[C@@H](NC(=O)[C@@H](N)Cc2ccc(O)cc2)CSSC[C@@H]2NC(=O)[C@@H]3CSSC[C@@H](C(=O)N[C@@H](CCCNC(=N)N)C(=O)N[C@@H](CCCCN)C(=O)N[C@@H](Cc4ccc(O)cc4)C(=O)N[C@@H](CCCNC(N)=O)C(N)=O)NC(=O)[C@H](Cc4c[nH]c5ccccc45)NC(=O)[C@H](CC(C)C)NC(=O)[C@H](CCCCN)NC(=O)[C@H](CSSC[C@H](NC(=O)[C@H]([C@@H](C)O)NC(=O)[C@H](Cc4c[nH]c5ccccc45)NC1=O)C(=O)N[C@@H](CC(=O)O)C(=O)N[C@@H](CO)C(=O)N[C@@H](CCCCN)C(=O)N[C@@H](CCCNC(=N)N)C(=O)N[C@@H](C)C(=O)N3)NC(=O)[C@H](CCC(=O)O)NC(=O)[C@H](CC(C)C)NC(=O)CNC(=O)[C@H](CCC(=O)O)NC2=O` [compound 241]: the IC50 on hNav1.3 is over 5 µM; on hNav1.5 it was over 5 µM; at hNav1.7 it was 1.2 µM; on hNav1.4, over 5 µM.

In the case of `CC[C@H](C)[C@H](NC(=O)[C@H](Cc1ccc(C(=O)O)cc1)NC(=O)[C@H](CCCCN)NC(=O)[C@H](CCCNC(=N)N)NC(=O)[C@@H]1CSSC[C@@H]2NC(=O)[C@H](C)NC(=O)[C@H](CCCNC(=N)N)NC(=O)[C@H](CCCCN)NC(=O)[C@H](CO)NC(=O)[C@H](CC(=O)O)NC(=O)[C@@H]3CSSC[C@H](NC(=O)[C@H](CCC(=O)O)NC(=O)[C@H](CC(C)C)NC(=O)CNC(=O)[C@H](CCC(=O)O)NC(=O)[C@H](CSSC[C@H](NC(=O)[C@@H](N)Cc4ccc(O)cc4)C(=O)N[C@@H](CCC(N)=O)C(=O)N[C@@H](CCCCN)C(=O)N[C@@H](Cc4c[nH]c5ccccc45)C(=O)N[C@@H](CCSC)C(=O)N[C@@H](Cc4c[nH]c5ccccc45)C(=O)N[C@@H]([C@@H](C)O)C(=O)N3)NC2=O)C(=O)N[C@@H](CCCCN)C(=O)N[C@@H](CC(C)C)C(=O)N[C@@H](Cc2c[nH]c3ccccc23)C(=O)N1)C(N)=O` [compound 127], the IC50 at hNav1.3 was over 5 µM; on hNav1.5, 16.7 µM; at hNav1.7, 2.35 µM; at hNav1.4 it was over 5 µM. The Nav1.4/Nav1.7 on hNav1.4 is recorded as 2.

In the case of `CC[C@H](C)[C@H](NC(=O)[C@H](CCC(=O)O)NC(=O)[C@H](CCCCN)NC(=O)[C@H](CCCNC(=N)N)NC(=O)[C@@H]1CSSC[C@@H]2NC(=O)[C@H](C)NC(=O)[C@H](CCCNC(=N)N)NC(=O)[C@H](CCCCN)NC(=O)[C@H](CO)NC(=O)[C@H](CC(=O)O)NC(=O)[C@@H]3CSSC[C@H](NC(=O)[C@H](CCC(=O)O)NC(=O)[C@H](CC(C)C)NC(=O)CNC(=O)[C@H](CCC(=O)O)NC(=O)[C@H](CSSC[C@H](NC(=O)[C@@H](N)Cc4ccc(O)cc4)C(=O)N[C@@H](CCC(N)=O)C(=O)N[C@@H](CCCCN)C(=O)N[C@@H](Cc4c[nH]c5ccccc45)C(=O)N[C@@H](CCSC)C(=O)N[C@@H](Cc4c[nH]c5ccccc45)C(=O)N[C@@H]([C@@H](C)O)C(=O)N3)NC2=O)C(=O)N[C@@H](CCCCN)C(=O)N[C@@H](CC(C)C)C(=O)N[C@@H](Cc2c[nH]c3ccccc23)C(=O)N1)C(N)=O` [compound 126], the IC50 at hNav1.3 is over 5 µM; at hNav1.5, 15.8 µM and 7.5 µM; at hNav1.7 it was 0.95 µM and 1.44 µM; at hNav1.4, over 5 µM. Moreover, at hNav1.4, the Nav1.4/Nav1.7 is 5 and 3.

For the compound `CC[C@H](C)[C@H](NC(=O)[C@H](Cc1ccc(O)cc1)NC(=O)[C@H](CCCCN)NC(=O)[C@H](CCCNC(=N)N)NC(=O)[C@@H]1CSSC[C@@H]2NC(=O)[C@H](C)NC(=O)[C@H](CCCNC(=N)N)NC(=O)[C@H](CCCCN)NC(=O)[C@H](CO)NC(=O)[C@H](CC(=O)O)NC(=O)[C@@H]3CSSC[C@H](NC(=O)[C@H](CCC(=O)O)NC(=O)[C@H](CC(C)C)NC(=O)CNC(=O)[C@H](CCC(=O)O)NC(=O)[C@H](CSSC[C@H](NC(=O)[C@@H](N)Cc4ccc(O)cc4)C(=O)N[C@@H](CCC(N)=O)C(=O)N[C@@H](CCCCN)C(=O)N[C@@H](Cc4c[nH]c5ccccc45)C(=O)N[C@@H](CCSC)C(=O)N[C@@H](CCCCN)C(=O)N[C@@H]([C@@H](C)O)C(=O)N3)NC2=O)C(=O)N[C@@H](CCCCN)C(=O)N[C@@H](CC(C)C)C(=O)N[C@@H](Cc2c[nH]c3ccccc23)C(=O)N1)C(N)=O` [compound 214], the IC50 at hNav1.3 is over 7 µM; on hNav1.5, over 7 µM; on hNav1.7, 2.7 µM; on hNav1.4, over 7 µM.
